{"source": "patent US20240368096A1", "about": "(Enanta Pharmaceuticals, Inc., priority 2022, published 2024)", "data": [{"system": "HBV", "assay": "HBV infection in HepG2-NTCP cells (HBeAg AlphaLISA in supernatants)", "format": "cell-based", "settings": "Hepatitis B virus, 192 h; HBV infection of HepG2-NTCP cells; HBeAg in supernatants at day 8 post infection; read-out: Cellular EC50", "summary_of_the_method": "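HepG2-NTCP A3 cells were pre-incubated 2 h with 3-fold serially diluted compounds, then infected with HBV at 2000 GE/cell with 4% PEG (0.5% DMSO final). After washing on day 1, cells stayed in 2.5% DMSO medium; supernatant HBeAg measured by AlphaLISA on day 8, EC50 versus DMSO controls.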", "units": {"EC50": "µM"}, "values": [{"compound": "CN1[C@H](CC2CC2)CN(c2ccccc2)c2cc(Cl)c(-c3ccc(F)c(C(=O)O)c3)cc2S1(=O)=O", "note": "[Example 73]", "EC50": "< 0.1"}, {"compound": "CC(C)C[C@@H]1CN(c2ccccc2)c2cc(Cl)c(-c3cc(OC(F)(F)F)cc(C(=O)O)c3)cc2S(=O)(=O)N1C", "note": "[Example 161]", "EC50": "0.1 to 1"}, {"compound": "COCC(C)(C)COC(=O)Nc1cc(-c2cc3c(cc2Cl)N(c2ccccc2)C[C@@H](C2CCCCC2)N(C)S3(=O)=O)sc1C(=O)O", "note": "[Example 260]", "EC50": "0.1 to 1"}, {"compound": "CN(C)c1cc2c(cc1-c1ccc(F)c(C(=O)O)c1)S(=O)(=O)N(C)[C@H](C1CCCCC1)CN2c1ccccc1", "note": "[Example 529]", "EC50": "< 0.1"}, {"compound": "CN1[C@H](C2CCC2)CN(c2ccccc2)c2cc(OCC(F)(F)F)c(-c3ccc(F)c(C(=O)O)c3)cc2S1(=O)=O", "note": "[Example 464]", "EC50": "0.1 to 1"}, {"compound": "CN1[C@H](C2CCCCC2)CN(c2ccccc2)c2cc(C3CCN(C(=O)OC(C)(C)C)C3)c(-c3ccc(F)c(C(=O)O)c3)cc2S1(=O)=O", "note": "(some centres unmarked) [Example 593]", "EC50": "0.1 to 1"}, {"compound": "CC(C)C[C@@H]1CN(c2ccccc2)c2cc(OC3(C)CCCC3)c(-c3ccc(Cl)c(C(=O)O)c3)cc2S(=O)(=O)N1C", "note": "[Example 454]", "EC50": "< 0.1"}, {"compound": "CN1[C@H](C2CCCCC2)CN(c2ccccc2)c2cc(Cl)c(-c3ccc(O)c(C(=O)O)c3)cc2S1(=O)=O", "note": "[Example 156, (R)-5-(7-chloro-3-cyclohexyl-2-methyl-1,1-dioxido-5-phenyl-2,3,4,5-tetrahydrobenzo[f][1,2,5]thiadiazepin-8-yl)-2-hydroxybenzoic acid]", "EC50": "< 0.1"}, {"compound": "CC(=O)NS(=O)(=O)c1cccc(-c2cc3c(cc2Cl)N(c2ccccc2)C[C@@H](C2CCCCC2)N(C)S3(=O)=O)c1", "note": "[Example 222]", "EC50": "0.1 to 1"}, {"compound": "O=C(O)c1cc(-c2cc3c(cc2F)N(c2ccccc2)CC2CC4(CC4)CN2S3(=O)=O)ccc1F", "note": "(centres unmarked) [Example 7]", "EC50": "0.1 to 1"}, {"compound": "CN1[C@H](C2CCCCC2)CN(c2ccccc2)c2cc(Cl)c(-c3cccc(C(=O)O)c3Cl)cc2S1(=O)=O", "note": "[Example 152, (R)-2-chloro-3-(7-chloro-3-cyclohexyl-2-methyl-1,1-dioxido-5-phenyl-2,3,4,5-tetrahydrobenzo[f][1,2,5]thiadiazepin-8-yl)benzoic acid]", "EC50": "> 1"}, {"compound": "CC(C)C[C@@H]1CN(c2ccccc2)c2cc(-c3ccccc3F)c(-c3ccc(F)c(C(=O)O)c3)cc2S(=O)(=O)N1C", "note": "[Example 576]", "EC50": "< 0.1"}, {"compound": "CN1[C@H](C2CCCCC2)CN(c2ccccc2)c2cc(Cl)c(-c3ccc(OC(F)(F)F)c(C(=O)O)c3)cc2S1(=O)=O", "note": "[Example 174]", "EC50": "0.1 to 1"}, {"compound": "CN1[C@H](CO)CN(c2ccccc2)c2cc(Cl)c(-c3ccc(F)c(C(=O)O)c3)cc2S1(=O)=O", "note": "[Example 98, (S)-5-(7-chloro-3-(hydroxymethyl)-2-methyl-1,1-dioxido-5-phenyl-2,3,4,5-tetrahydrobenzo[f][1,2,5]thiadiazepin-8-yl)-2-fluorobenzoic acid]", "EC50": "> 1"}, {"compound": "CN1[C@H](C2CCCCC2)CN(c2ccccc2)c2cc(OC3CN(C(=O)OC(C)(C)C)C3)c(-c3ccc(F)c(C(=O)O)c3)cc2S1(=O)=O", "note": "[Example 398]", "EC50": "< 0.1"}, {"compound": "CC(C)C[C@@H]1CN(c2ccccc2)c2cc(OCC3CCCN3C)c(-c3ccc(F)c(C(=O)O)c3)cc2S(=O)(=O)N1C", "note": "(some centres unmarked) [Example 449]", "EC50": "> 1"}, {"compound": "CN1[C@H](C2CCCCC2)CN(c2ccccc2)c2cc(OCC34CC(CO3)C4)c(-c3ccc(F)c(C(=O)O)c3)cc2S1(=O)=O", "note": "[Example 371]", "EC50": "< 0.1"}, {"compound": "CC(C)[C@@H]1CN(c2ccccc2)c2cc(Cl)c(-c3ccc(F)c(C(=O)O)c3)cc2S(=O)(=O)N1C", "note": "[Example 61, (R)-5-(7-chloro-3-isopropyl-2-methyl-1,1-dioxido-5-phenyl-2,3,4,5-tetrahydrobenzo[f][1,2,5]thiadiazepin-8-yl)-2-fluorobenzoic acid]", "EC50": "0.1 to 1"}, {"compound": "CC(C)C[C@@H]1CN(c2ccccc2)c2cc(N3CCCc4ccccc43)c(-c3ccc(Cl)c(C(=O)O)c3)cc2S(=O)(=O)N1C", "note": "[Example 557]", "EC50": "0.1 to 1"}, {"compound": "CN1[C@H](C2CCCCC2)CN(c2cc(F)cc(F)c2F)c2cc(Cl)c(-c3ccc(F)c(C(=O)O)c3)cc2S1(=O)=O", "note": "[Example 299]", "EC50": "0.1 to 1"}]}]}
